According to patent publication US20230112484A1, “COMPOSITIONS FOR CROP PROTECTION” (Agrematch Ltd., priority 2020, published 2023):

Tests used:
Format in all cases: in vivo
Lolium rigidum [1] = experiment: Soil germination (Example 1)
Description: (§1) Compounds were dissolved in DMSO and then in distilled water to get 0.01-2 mg/ml solution with 1% or 2% DMSO. 1% or 2% DMSO solution in water was used as a negative control. As a positive control, 0.1 or 0.2 mg/ml oxyfluorfen (Galigan) solution was used.
(§2) Flowerpots were filled with 30 g of soil, and 4-5 seeds were sowed in each flowerpot. Each treatment contained 3 flowerpots. Each flowerpot was sprayed with 1.5 ml of the dissolved compound. Soil was let dry for about 1 hour at room conditions, and then each flowerpot was sub-irrigated with 40 ml water and incubated under conditions provided below.
(§3) Amaranthus palmeri was incubated at 25° C. for 8 hr in dark, followed by 16 hr at 30° C. in light. Lolium rigidum was incubated at 21° C. for 8 hr in dark, followed by 16 hr at 21° C. in light. Germination was assessed and scored after 4-7 days. Scoring scale: 0—complete germination inhibition, 100—no effect.

Amaranthus palmeri [2] = experiment: Paper germination (Example 1); conditions: 0.1 mg/ml
Description: (§4) Compounds were dissolved in DMSO and then in distilled water to get 0.1 or 0.5 mg/ml solution with 0.5% DMSO.
(§5) 0.5% DMSO solution in water was used as a negative control. As a positive control, 0.1 mg/ml oxyfluorfen (Galigan) solution was used.
(§6) A towel paper was placed in each box as bedding for seeds. Each box was soaked with 6 ml of the solutions on its paper. 13 seeds were placed on the wet paper and the box was sealed and incubated under conditions provided bellow.
Amaranthus palmeri—first 2 days under dark conditions. Plants were first incubated at 25° C. for 8 hr, then at 30° C. for 16 hr. Afterwards, plants were incubated at 25° C. for 8 hr in dark, followed by 16 hr incubation at 30° C. in light.
(§7) Gemination was assessed and scored after 3-7 days. Scoring scale: 0—complete germination inhibition, 100—no effect.

Lolium rigidum [3] = experiment: Paper germination (Example 1); conditions: 0.1 mg/ml
Description: as §4, §5, §6
Lolium rigidum—first 4 days under dark conditions at 21° C. Afterwards, plants were incubated at 21° C. for 8 hr in dark, followed by 16 hr at 21° C. in light.
as §7

a variety of plants = experiment: Foliar experiment (Example 2), overall statement; conditions: as shown in Table 5
Description: (§8) Compounds were dissolved in DMSO and then in distilled water to get 0.1 or 0.5 mg/ml solution with 2% DMSO. Break-Thru surfactant was added to a final concentration of 0.05%. Negative control—an aqueous solution of 2% DMSO and 0.05% Break-Thru. Positive control—2 mg/ml Glyphosate (Roundup). 1.5 ml of each compound solution were sprayed on the foliage of different plants, which were 6-16 days old at the day of the experiment. Each treatment contained 3 pots. Plants were let dry for about 15 minutes at room conditions, and then incubated at controlled growth chambers. Phytotoxicity was assessed and scored 4-10 days after applications. Scoring scale: 0—complete phytotoxic effect, 100—no effect. [table]

Amaranthus palmeri [4] = experiment: Soil germination (Example 1); conditions: for Amaranthus palmeri soil germination: score 0 = complete germination inhibition, 100 = no effect
Description: as §1, §2, §3

Echinochloa colonum [5] = experiment: Soil germination (Example 3); conditions: 0.5 mg/ml; score 0 = complete germination inhibition, 100 = no effect; after 7 days
Description: (§9) Compounds were dissolved in DMSO and then in distilled water to get 0.1 or 0.5 mg/ml solution with 2% DMSO. 2% DMSO solution in water was used as a negative control. No positive control was used in this assay. Flowerpots were filled with 30 g of soil, each treatment contained three flowerpots. Each flowerpot was sprayed with 1.5 ml of the dissolved compound. Soil was let dry for about 1 hour at room conditions, and then each flowerpot was sub-irrigated with 40 ml water and incubated at controlled growth chambers, under conditions provided on table 6. Gemination was assessed and scored after 7 days. Scoring scale: 0—complete germination inhibition, 100—no effect. [table]

Lolium rigidum [6] = experiment: Soil germination (Example 3); conditions: 0.5 mg/ml; score 0 = complete germination inhibition, 100 = no effect; after 7 days
Description: as §9

Triticum vulgare [7] = experiment: Soil germination (Example 3); conditions: 0.5 mg/ml; score 0 = complete germination inhibition, 100 = no effect; after 7 days
Description: as §9

Gossypium hirsutum [8] = experiment: Soil germination (Example 3); conditions: 0.5 mg/ml; score 0 = complete germination inhibition, 100 = no effect; after 7 days
Description: as §9

Abutilon theophrasti [9] = experiment: Soil germination (Example 3); conditions: 0.5 mg/ml; score 0 = complete germination inhibition, 100 = no effect; after 7 days
Description: as §9

Sinapis alba [10] = experiment: Soil germination (Example 3); conditions: 0.5 mg/ml; score 0 = complete germination inhibition, 100 = no effect; after 7 days
Description: as §9

Solarium nigrum [11] = experiment: Soil germination (Example 3); conditions: 0.5 mg/ml; score 0 = complete germination inhibition, 100 = no effect; after 7 days
Description: as §9

Zea mays [12] = experiment: Soil germination (Example 3); conditions: 0.5 mg/ml; score 0 = complete germination inhibition, 100 = no effect; after 7 days
Description: as §9

Setaria adhaerens [13] = experiment: Soil germination (Example 3); conditions: 0.5 mg/ml; score 0 = complete germination inhibition, 100 = no effect; after 7 days
Description: as §9

Lactuca sativa [14] = experiment: Soil germination (Example 3); conditions: 0.5 mg/ml; score 0 = complete germination inhibition, 100 = no effect; after 7 days
Description: as §9

Amaranthus palmeri [15] = experiment: Soil germination (Example 3); conditions: 0.5 mg/ml; score 0 = complete germination inhibition, 100 = no effect; after 7 days
Description: as §9

Brassica napus [16] = experiment: Soil germination (Example 3); conditions: 0.5 mg/ml; score 0 = complete germination inhibition, 100 = no effect; after 7 days
Description: as §9

Echinochloa colonum [17] = experiment: Foliar experiment (Example 2); conditions: 0.5 mg/ml; score 0 = complete phytotoxic effect, 100 = no effect
Description: as §8

Lolium rigidum [18] = experiment: Foliar experiment (Example 2); conditions: 0.5 mg/ml; score 0 = complete phytotoxic effect, 100 = no effect
Description: as §8

Triticum vulgare [19] = experiment: Foliar experiment (Example 2); conditions: 0.5 mg/ml; score 0 = complete phytotoxic effect, 100 = no effect
Description: as §8

Gossypium hirsutum [20] = experiment: Foliar experiment (Example 2); conditions: 0.5 mg/ml; score 0 = complete phytotoxic effect, 100 = no effect
Description: as §8

Abutilon theophrasti [21] = experiment: Foliar experiment (Example 2); conditions: 0.5 mg/ml; score 0 = complete phytotoxic effect, 100 = no effect
Description: as §8

Phalaris brachystachys = experiment: Foliar experiment (Example 2); conditions: 0.5 mg/ml; score 0 = complete phytotoxic effect, 100 = no effect
Description: as §8

Sinapis alba [22] = experiment: Foliar experiment (Example 2); conditions: 0.5 mg/ml; score 0 = complete phytotoxic effect, 100 = no effect
Description: as §8

Solarium nigrum [23] = experiment: Foliar experiment (Example 2); conditions: 0.5 mg/ml; score 0 = complete phytotoxic effect, 100 = no effect
Description: as §8

Zea mays [24] = experiment: Foliar experiment (Example 2); conditions: 0.5 mg/ml; score 0 = complete phytotoxic effect, 100 = no effect
Description: as §8

Setaria adhaerens [25] = experiment: Foliar experiment (Example 2); conditions: 0.5 mg/ml; score 0 = complete phytotoxic effect, 100 = no effect
Description: as §8

Lactuca sativa [26] = experiment: Foliar experiment (Example 2); conditions: 0.5 mg/ml; score 0 = complete phytotoxic effect, 100 = no effect
Description: as §8

Amaranthus palmeri [27] = experiment: Foliar experiment (Example 2); conditions: 0.5 mg/ml; score 0 = complete phytotoxic effect, 100 = no effect; 4-10 days after application
Description: as §8

Brassica napus [28] = experiment: Foliar experiment (Example 2); conditions: 0.5 mg/ml; score 0 = complete phytotoxic effect, 100 = no effect
Description: as §8

## CC(Cl)/C=C/C(=O)N(CC(C)C)c1ccc(Cl)cc1F (stereo not shown)
Lolium rigidum [1]; 1 mg/ml
  Lolium rigidum soil germination: unable to reduce soil germination
Amaranthus palmeri [2]
  paper germination reduction of Amaranthus palmeri: not active
Lolium rigidum [3]
  paper germination reduction of Lolium rigidum: not active

## CC(Cl)/C=C/C(=O)N(Cc1ccc(Cl)s1)CC(C)C (stereo not shown) [Compound 4]
A variety of plants
  Herbicidal activity in a variety of plants, foliar, result in words: solid herbicidal activity
Lolium rigidum [1]; 0.5 mg/ml, score 0 = complete germination inhibition, 100 = no effect
  Lolium rigidum soil germination: 60
Lolium rigidum [1]; 2 mg/ml, score 0 = complete germination inhibition, 100 = no effect
  Lolium rigidum soil germination: 70
Lolium rigidum [1]; concentration not given
  soil germination of Lolium rigidum, result in words: active
Amaranthus palmeri [4]; 0.1 mg/ml
  Amaranthus palmeri soil germination: 0
Amaranthus palmeri [4]; 0.25 mg/ml
  Amaranthus palmeri soil germination: 0
Amaranthus palmeri [4]; 0.5 mg/ml
  Amaranthus palmeri soil germination: 0
Amaranthus palmeri [4]; 1 mg/ml
  Amaranthus palmeri soil germination: 0
Amaranthus palmeri [4]; concentration not given
  soil germination of Amaranthus palmeri, result in words: active
Echinochloa colonum [5]
  Herbicidal activity, soil germination, Echinochloa colonum: 5
Lolium rigidum [6]
  Herbicidal activity, soil germination, Lolium rigidum: 60
Triticum vulgare [7]
  Herbicidal activity, soil germination, Triticum vulgare: 60
Gossypium hirsutum [8]
  Herbicidal activity, soil germination, Gossypium hirsutum: 90
Abutilon theophrasti [9]
  Herbicidal activity, soil germination, Abutilon theophrasti: 10
Sinapis alba [10]
  Herbicidal activity, soil germination, Sinapis alba: 30
Solarium nigrum [11]
  Herbicidal activity, soil germination, Solarium nigrum: 10
Zea mays [12]
  Herbicidal activity, soil germination, Zea mays: 80
Setaria adhaerens [13]
  Herbicidal activity, soil germination, Setaria adhaerens: 5
Lactuca sativa [14]
  Herbicidal activity, soil germination, Lactuca sativa: 70
Amaranthus palmeri [15]
  Herbicidal activity, soil germination, Amaranthus palmeri: 0
Brassica napus [16]
  Herbicidal activity, soil germination, Brassica napus: 10
Echinochloa colonum [17]
  Herbicidal activity, foliar, Echinochloa colonum: 70
Lolium rigidum [18]
  Herbicidal activity, foliar, Lolium rigidum: 10
Triticum vulgare [19]
  Herbicidal activity, foliar, Triticum vulgare: 100
Gossypium hirsutum [20]
  Herbicidal activity, foliar, Gossypium hirsutum: 60
Abutilon theophrasti [21]
  Herbicidal activity, foliar, Abutilon theophrasti: 5
Phalaris brachystachys
  Herbicidal activity, foliar, Phalaris brachystachys: 5
Sinapis alba [22]
  Herbicidal activity, foliar, Sinapis alba: 10
Solarium nigrum [23]
  Herbicidal activity, foliar, Solarium nigrum: 0
Zea mays [24]
  Herbicidal activity, foliar, Zea mays: 80
Setaria adhaerens [25]
  Herbicidal activity, foliar, Setaria adhaerens: 5
Lactuca sativa [26]
  Herbicidal activity, foliar, Lactuca sativa: 0
Amaranthus palmeri [27]
  Herbicidal activity, foliar, Amaranthus palmeri: 0
Brassica napus [28]
  Herbicidal activity, foliar, Brassica napus: 0
